Results as given in patent US9693556B2, “Herbicidal pyridazinone derivatives” (SYNGENTA LIMITED, priority 2011, dated 2017).

Legend:
Assay type in all cases: in vivo
[1] = tested on: Amaranthus retoflexus (AMARE); experiment: Pre-emergence herbicidal glasshouse test on Amaranthus retoflexus; settings: for PRE Application AMARE herbicidal damage (five point scale): pre-emergence, 1000 g/h, evaluated after 13 days
Description: (§1) Seeds of a variety of test species are sown in standard soil in pots (Alopecurus myosuroides (ALOMY), Setaria faberi (SETFA), Echinochloa crus-galli (ECHCG), Solanum nigrum (SOLNI), Amaranthus retoflexus (AMARE), Ipomoea hederacea (IPOHE)). After cultivation for one day (pre-emergence) or after 8 days cultivation (post-emergence) under controlled conditions in a glasshouse (at 24/16° C., day/night; 14 hours light; 65% humidity), the plants are sprayed with an aqueous spray solution derived from the formulation of the technical active ingredient in acetone/water (50:50) solution containing 0.5% Tween 20 (polyoxyethelyene sorbitan monolaurate, CAS RN 9005-64-5). Compounds are applied at 1000 g/h. The test plants are then grown in a glasshouse under controlled conditions in a glasshouse (at 24/16° C., day/night; 14 hours light; 65% humidity) and watered twice daily. After 13 days for pre and post-emergence, the test is evaluated for the percentage herbicidal damage caused to the plant. The biological activities are shown in the following table on a five point scale (5=80-100% damage; 4=60-79% damage; 3=40-59% damage; 2=20-39% damage; 1=0-19% damage).

[2] = tested on: Alopecurus myosuroides (ALOMY); experiment: Pre-emergence herbicidal glasshouse test on Alopecurus myosuroides; settings: for PRE Application ALOMY herbicidal damage (five point scale): pre-emergence, 1000 g/h, evaluated after 13 days
Description: as §1

[3] = tested on: Alopecurus myosuroides (ALOMY); experiment: Post-emergence herbicidal glasshouse test on Alopecurus myosuroides; settings: for POST Application ALOMY herbicidal damage (five point scale): post-emergence, 1000 g/h, evaluated after 13 days
Description: as §1

[4] = tested on: Setaria faberi (SETFA); experiment: Pre-emergence herbicidal glasshouse test on Setaria faberi; settings: for PRE Application SETFA herbicidal damage (five point scale): pre-emergence, 1000 g/h, evaluated after 13 days
Description: as §1

[5] = tested on: Amaranthus retoflexus (AMARE); experiment: Post-emergence herbicidal glasshouse test on Amaranthus retoflexus; settings: for POST Application AMARE herbicidal damage (five point scale): post-emergence, 1000 g/h, evaluated after 13 days
Description: as §1

[6] = tested on: Ipomoea hederacea (IPOHE); experiment: Post-emergence herbicidal glasshouse test on Ipomoea hederacea; settings: for POST Application IPOHE herbicidal damage (five point scale): post-emergence, 1000 g/h, evaluated after 13 days
Description: as §1

[7] = tested on: Solanum nigrum (SOLNI); experiment: Post-emergence herbicidal glasshouse test on Solanum nigrum; settings: for POST Application SOLNI herbicidal damage (five point scale): post-emergence, 1000 g/h, evaluated after 13 days
Description: as §1

[8] = tested on: Solanum nigrum (SOLNI); experiment: Pre-emergence herbicidal glasshouse test on Solanum nigrum; settings: for PRE Application SOLNI herbicidal damage (five point scale): pre-emergence, 1000 g/h, evaluated after 13 days
Description: as §1

[9] = tested on: Echinochloa crus-galli (ECHCG); experiment: Post-emergence herbicidal glasshouse test on Echinochloa crus-galli; settings: for POST Application ECHCG herbicidal damage (five point scale): post-emergence, 1000 g/h, evaluated after 13 days
Description: as §1

[10] = tested on: Setaria faberi (SETFA); experiment: Post-emergence herbicidal glasshouse test on Setaria faberi; settings: for POST Application SETFA herbicidal damage (five point scale): post-emergence, 1000 g/h, evaluated after 13 days
Description: as §1

[11] = tested on: Echinochloa crus-galli (ECHCG); experiment: Pre-emergence herbicidal glasshouse test on Echinochloa crus-galli; settings: pre-emergence; 1000 g/h; evaluated after 13 days
Description: as §1

[12] = tested on: Ipomoea hederacea (IPOHE); experiment: Pre-emergence herbicidal glasshouse test on Ipomoea hederacea; settings: pre-emergence; 1000 g/h; evaluated after 13 days
Description: as §1

Row | Compound | PRE Application ECHCG herbicidal damage (five point scale) [11] | PRE Application AMARE herbicidal damage (five point scale) [1] | PRE Application ALOMY herbicidal damage (five point scale) [2] | POST Application ALOMY herbicidal damage (five point scale) [3] | PRE Application SETFA herbicidal damage (five point scale) [4] | POST Application AMARE herbicidal damage (five point scale) [5] | POST Application IPOHE herbicidal damage (five point scale) [6] | POST Application SOLNI herbicidal damage (five point scale) [7] | PRE Application SOLNI herbicidal damage (five point scale) [8] | POST Application ECHCG herbicidal damage (five point scale) [9] | POST Application SETFA herbicidal damage (five point scale) [10] | PRE Application IPOHE herbicidal damage (five point scale) [12] | also measured
1 | CCCCn1c(C2CC2)ncc(-c2cnn(C)c(=O)c2O)c1=O [Compound 10.005] |  |  |  |  |  |  |  |  |  |  |  |  | PRE Application AMARE ([1]; pre-emergence application, Amaranthus retoflexus, damage score 1-5): 5 (5=80-100% damage); PRE Application ALOMY ([2]; pre-emergence application, Alopecurus myosuroides, damage score 1-5): 1 (1=0-19% damage); POST Application ALOMY ([3]; post-emergence application, Alopecurus myosuroides, damage score 1-5): 2 (2=20-39% damage); PRE Application SETFA ([4]; pre-emergence application, Setaria faberi, damage score 1-5): 1 (1=0-19% damage); POST Application AMARE ([5]; post-emergence application, Amaranthus retoflexus, damage score 1-5): 5 (5=80-100% damage); POST Application IPOHE ([6]; post-emergence application, Ipomoea hederacea, damage score 1-5): 4 (4=60-79% damage); POST Application SOLNI ([7]; post-emergence application, Solanum nigrum, damage score 1-5): 5 (5=80-100% damage); PRE Application SOLNI ([8]; pre-emergence application, Solanum nigrum, damage score 1-5): 5 (5=80-100% damage); POST Application ECHCG ([9]; post-emergence application, Echinochloa crus-galli, damage score 1-5): 5 (5=80-100% damage); POST Application SETFA ([10]; post-emergence application, Setaria faberi, damage score 1-5): 5 (5=80-100% damage)
2 | CCn1ncc(-c2ccc(S(C)(=O)=O)c(C3=NOCC3)c2Cl)c(O)c1=O [Compound 1.009] | 5 (5=80-100% damage) | 5 (5=80-100% damage) | 5 (5=80-100% damage) | 5 (5=80-100% damage) | 5 (5=80-100% damage) | 5 (5=80-100% damage) | 5 (5=80-100% damage) | 5 (5=80-100% damage) | 5 (5=80-100% damage) | 5 (5=80-100% damage) | 5 (5=80-100% damage) |  | 
3 | CCCn1ncc(-c2ccc(C(F)(F)F)cc2Cl)c(O)c1=O [Compound 1.126] | 1 (1=0-19% damage) |  | 1 (1=0-19% damage) | 1 (1=0-19% damage) | 1 (1=0-19% damage) | 5 (5=80-100% damage) | 3 (3=40-59% damage) | 4 (4=60-79% damage) | 1 (1=0-19% damage) | 2 (2=20-39% damage) | 2 (2=20-39% damage) | 1 (1=0-19% damage) | 
4 | C=Cc1ccc(-c2cnn(C)c(=O)c2O)c(S(C)(=O)=O)c1 [Compound 1.139] | 5 (5=80-100% damage) | 5 (5=80-100% damage) | 5 (5=80-100% damage) | 5 (5=80-100% damage) | 1 (1=0-19% damage) | 5 (5=80-100% damage) | 5 (5=80-100% damage) | 5 (5=80-100% damage) |  | 5 (5=80-100% damage) | 5 (5=80-100% damage) | 4 (4=60-79% damage) | 
5 | Cc1cccn(-c2cnn(C)c(=O)c2O)c1=O [Compound 1.062] | 1 (1=0-19% damage) |  | 1 (1=0-19% damage) | 2 (2=20-39% damage) | 1 (1=0-19% damage) | 5 (5=80-100% damage) | 5 (5=80-100% damage) | 4 (4=60-79% damage) | 1 (1=0-19% damage) | 5 (5=80-100% damage) | 4 (4=60-79% damage) | 1 (1=0-19% damage) | 
6 | Cn1ncc(-c2ccccc2[N+](=O)[O-])c(O)c1=O [Compound 1.111] | 1 (1=0-19% damage) |  | 1 (1=0-19% damage) | 1 (1=0-19% damage) | 1 (1=0-19% damage) | 2 (2=20-39% damage) | 1 (1=0-19% damage) | 3 (3=40-59% damage) |  | 1 (1=0-19% damage) | 1 (1=0-19% damage) | 2 (2=20-39% damage) | 
7 | COc1ccc(-c2cnn(C)c(=O)c2O)c(C(F)(F)F)c1 [Compound 1.115] | 2 (2=20-39% damage) | 4 (4=60-79% damage) | 1 (1=0-19% damage) | 1 (1=0-19% damage) | 1 (1=0-19% damage) | 2 (2=20-39% damage) | 4 (4=60-79% damage) | 5 (5=80-100% damage) | 4 (4=60-79% damage) | 1 (1=0-19% damage) | 1 (1=0-19% damage) |  | 
8 | Cc1ccn(-c2cnn(C)c(=O)c2O)c(=O)c1 [Compound 1.065] | 3 (3=40-59% damage) | 5 (5=80-100% damage) | 1 (1=0-19% damage) | 1 (1=0-19% damage) | 2 (2=20-39% damage) | 5 (5=80-100% damage) | 4 (4=60-79% damage) | 4 (4=60-79% damage) | 1 (1=0-19% damage) | 5 (5=80-100% damage) | 5 (5=80-100% damage) |  | 
9 | CC(C)n1ncc(-c2c(Cl)ccc(Cl)c2Cl)c(O)c1=O [Compound 1.015] | 1 (1=0-19% damage) |  | 1 (1=0-19% damage) | 1 (1=0-19% damage) | 1 (1=0-19% damage) | 2 (2=20-39% damage) | 4 (4=60-79% damage) | 4 (4=60-79% damage) |  | 2 (2=20-39% damage) | 1 (1=0-19% damage) | 1 (1=0-19% damage) | 
